Entries after “also recorded” stand apart in the source; their conditions may differ.
Target: T1, αRtripleAβγ (Mus musculus, UniProt Q61180+Q9WU38+Q9WU39, R205A/R208A/R231A)
T1 construct: expressed in transfected cells; host or cells: Xenopus laevis oocytes (cRNA injection)
T1 sequence (Q61180 1-699 R205A/R208A/R231A): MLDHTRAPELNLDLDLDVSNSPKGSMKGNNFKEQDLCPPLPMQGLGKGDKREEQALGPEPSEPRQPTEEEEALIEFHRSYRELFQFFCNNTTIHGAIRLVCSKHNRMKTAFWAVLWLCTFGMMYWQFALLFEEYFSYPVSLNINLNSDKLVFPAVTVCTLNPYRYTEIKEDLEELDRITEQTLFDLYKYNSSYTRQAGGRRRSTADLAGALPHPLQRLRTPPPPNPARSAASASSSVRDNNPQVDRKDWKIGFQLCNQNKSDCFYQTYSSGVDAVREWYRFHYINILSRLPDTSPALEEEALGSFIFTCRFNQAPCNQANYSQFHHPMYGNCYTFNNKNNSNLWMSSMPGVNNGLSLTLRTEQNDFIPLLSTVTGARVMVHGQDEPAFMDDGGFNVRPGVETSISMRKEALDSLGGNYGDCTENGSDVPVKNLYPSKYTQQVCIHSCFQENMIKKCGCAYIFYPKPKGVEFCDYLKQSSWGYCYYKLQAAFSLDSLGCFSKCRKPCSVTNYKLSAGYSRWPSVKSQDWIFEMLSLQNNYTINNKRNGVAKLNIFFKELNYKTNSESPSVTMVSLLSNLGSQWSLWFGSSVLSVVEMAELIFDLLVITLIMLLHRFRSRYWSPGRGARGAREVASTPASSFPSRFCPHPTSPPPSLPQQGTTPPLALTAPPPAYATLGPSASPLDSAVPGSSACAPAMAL
T1 sequence (Q9WU38 1-638): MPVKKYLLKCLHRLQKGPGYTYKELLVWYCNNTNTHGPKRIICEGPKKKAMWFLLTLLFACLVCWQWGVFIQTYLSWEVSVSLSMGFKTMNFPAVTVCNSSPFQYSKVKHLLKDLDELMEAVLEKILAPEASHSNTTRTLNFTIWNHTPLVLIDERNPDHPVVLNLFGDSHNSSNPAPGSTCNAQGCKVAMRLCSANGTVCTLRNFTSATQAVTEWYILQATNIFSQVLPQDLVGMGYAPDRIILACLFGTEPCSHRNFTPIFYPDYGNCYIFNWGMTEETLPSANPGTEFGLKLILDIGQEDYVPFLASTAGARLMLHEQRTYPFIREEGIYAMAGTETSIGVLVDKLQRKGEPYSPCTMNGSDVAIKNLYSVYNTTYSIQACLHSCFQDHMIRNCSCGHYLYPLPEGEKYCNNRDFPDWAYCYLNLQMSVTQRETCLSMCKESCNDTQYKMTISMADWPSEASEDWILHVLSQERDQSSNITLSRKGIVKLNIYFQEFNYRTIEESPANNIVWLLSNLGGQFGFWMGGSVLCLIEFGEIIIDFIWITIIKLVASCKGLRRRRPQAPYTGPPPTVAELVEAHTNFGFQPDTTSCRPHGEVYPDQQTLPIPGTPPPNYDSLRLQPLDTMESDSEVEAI
T1 sequence (Q9WU39 1-655): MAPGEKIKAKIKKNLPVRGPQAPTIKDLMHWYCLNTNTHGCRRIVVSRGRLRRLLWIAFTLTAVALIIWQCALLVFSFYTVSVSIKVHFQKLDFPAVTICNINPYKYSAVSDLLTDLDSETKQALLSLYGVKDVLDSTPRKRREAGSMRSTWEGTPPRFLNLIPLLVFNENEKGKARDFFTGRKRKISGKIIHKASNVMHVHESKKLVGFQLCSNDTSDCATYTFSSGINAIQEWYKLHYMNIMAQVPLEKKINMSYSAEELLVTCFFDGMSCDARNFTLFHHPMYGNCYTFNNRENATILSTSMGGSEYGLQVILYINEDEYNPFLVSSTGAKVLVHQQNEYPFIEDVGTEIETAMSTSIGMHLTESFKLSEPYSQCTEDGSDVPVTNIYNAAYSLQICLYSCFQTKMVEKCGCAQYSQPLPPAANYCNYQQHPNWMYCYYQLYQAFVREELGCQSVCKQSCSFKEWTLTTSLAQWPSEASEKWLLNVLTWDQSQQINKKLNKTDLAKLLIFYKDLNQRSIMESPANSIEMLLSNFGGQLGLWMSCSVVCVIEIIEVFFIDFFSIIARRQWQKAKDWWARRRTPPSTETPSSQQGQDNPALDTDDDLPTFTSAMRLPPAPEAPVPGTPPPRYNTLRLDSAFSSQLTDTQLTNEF
Assay: Two-electrode voltage clamp in oocytes expressing channels lacking furin cleavage of the α subunit
Type: cell-based
Conditions: 1 μM α-26
Text: Oocyte Expression—cRNAs for α, β, γ mouse ENaC (wild-type and mutant) subunits and mouse prostasin were synthesized with T3 or T7 m-Message mMachineTM (Ambion, Austin, Tex.). Subunits carrying furin cleavage consensus site mutations and the corresponding wild-type subunits have amino-terminal HA and carboxyl-terminal V5 tags (Hughey, R. P., Bruns, J. B., Kinlough, C. L., Harkleroad, K. L., Tong, Q., Carattino, M. D., Johnson, J. P., Stockand, J. D., and Kleyman, T. R. (2004) J. Biol. Chem. 279, 18111-18114 18). Stage V-VI Xenopus laevis oocytes were pretreated with 1.5 mg/ml of type IV collagenase and injected with 0.5-2 ng of cRNA/subunit. Injected oocytes were maintained as previously reported (Carattino, M. D., Hill, W. G., and Kleyman, T. R. (2003), Arachidonic Acid Regulates Surface Expression of Epithelial Sodium Channels, J Biol. Chem. 278, 36202-36213 29).
Two-electrode Voltage Clamp—Two-electrode voltage clamp (TEV) was performed as previously described (Carattino, M. D., Hill, W. G., and Kleyman, T. R. (2003) J Biol. Chem. 278, 36202-36213 29). The extracellular solution (TEV solution) was (in mM): 110 NaCl, 2 KCl, 1.54 CaCl2, 10 HEPES, pH 7.4, or otherwise as indicated. […] ENaC-mediated whole cell Na^+ currents, at −60 mV,were defined as the amiloride-sensitive component of the current. […]

## Ac-DLRGALPHPLQRLRTPPPPNPARSAR-NH2 [α-26]
  block of channels: does not block; also recorded: not blocked

Source: US20070149456A1, “Epithelial sodium channel inhibiting agents and uses therefor” (University of Pittsburgh, priority 2005, published 2007)
